One series concerns the target T1, Aurora2 (Aurora-A) (Homo sapiens, UniProt O14965).
T1 construct: Aurora-A: the full length recombinant protein including an N-terminal poly-histidine tail has been expressed in E. coli; poly-histidine (N); made in house; host or cells: E. coli
T1 sequence (O14965 1-403): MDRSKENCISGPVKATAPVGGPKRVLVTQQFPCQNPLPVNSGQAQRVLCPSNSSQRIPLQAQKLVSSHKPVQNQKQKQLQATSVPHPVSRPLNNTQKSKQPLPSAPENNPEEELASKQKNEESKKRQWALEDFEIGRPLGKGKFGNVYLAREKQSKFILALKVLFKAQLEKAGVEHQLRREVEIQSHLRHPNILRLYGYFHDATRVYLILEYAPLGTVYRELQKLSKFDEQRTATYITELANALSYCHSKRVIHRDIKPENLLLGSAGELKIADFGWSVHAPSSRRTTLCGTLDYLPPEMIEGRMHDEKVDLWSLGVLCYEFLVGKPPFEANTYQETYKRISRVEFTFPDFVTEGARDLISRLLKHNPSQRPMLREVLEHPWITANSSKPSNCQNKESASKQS
The series can be described thus: Aurora 2 (Aurora A) kinase radioactivity scintillation assay using nickel chelate Flash plates. The class given is biochemical. Particulars: 10 nM Aurora-A, 500 nM NuMA substrate, 1 μM ATP with [33P] ATP, 10 mM MgCl2, 30 minutes, 37° C. The procedure, abridged: (§1)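 10 nM Aurora-B or Aurora-A with 500 nM NuMA-His substrate, 1 μM ATP plus [³³P]ATP, in 50 mM NaCl, 1 mM DTT and 5 mM (B) or 10 mM (A) MgCl2, 30 min at 37° C on nickel-chelate plates. Incorporated ³³P counted after washing, background-subtracted; IC50 fitted from % inhibition versus concentration.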

Another series deals with T2, Aurora1 (Aurora-B) (Homo sapiens, UniProt Q96GD4).
T2 construct: Aurora-B: the full length protein (His tagged in N-terminal) has been co expressed in SF9 cells; poly-histidine (N); made in house; host or cells: SF9 cells
The series can be described thus: Aurora 1 (Aurora B) kinase radioactivity scintillation assay using nickel chelate Flash plates. It is filed as biochemical. Particulars: 10 nM Aurora-B (co expressed with C3 fragment of INCEP), 500 nM NuMA substrate, 1 μM ATP with [33P] ATP, 5 mM MgCl2, 30 minutes, 37° C. In short, it runs like this:
as §1

T2 sequence (Q96GD4 whole entry, species assumed): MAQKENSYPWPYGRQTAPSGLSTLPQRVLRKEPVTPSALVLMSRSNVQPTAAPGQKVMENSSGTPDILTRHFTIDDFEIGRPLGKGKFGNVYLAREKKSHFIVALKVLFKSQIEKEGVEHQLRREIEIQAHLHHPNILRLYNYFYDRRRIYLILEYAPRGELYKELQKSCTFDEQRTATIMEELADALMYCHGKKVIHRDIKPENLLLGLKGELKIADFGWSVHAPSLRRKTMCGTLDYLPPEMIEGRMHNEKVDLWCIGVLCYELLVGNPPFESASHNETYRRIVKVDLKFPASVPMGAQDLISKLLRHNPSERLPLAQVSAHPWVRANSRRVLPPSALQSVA
T2 sequence (Q9NQS7 821-918 partner limits assumed, species assumed): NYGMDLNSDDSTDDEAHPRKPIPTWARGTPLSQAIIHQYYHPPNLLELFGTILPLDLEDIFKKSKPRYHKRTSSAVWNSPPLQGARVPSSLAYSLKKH

As a reminder, the IC50 is the concentration at which inhibition is half-maximal. One may read the melting point as the temperature of the solid-liquid transition. `CCOC(=O)c1[nH]cc2c1NC1=C(C(=O)CCC1)C2c1ccc(Sc2nc3cc(Cl)c(Cl)cc3[nH]2)o1` (stereo not drawn) [Example 116, 9-[5-(5,6-Dichloro-1H-benzimidazol-2-ylsulfanyl)-furan-2-yl]-8-oxo-4,5,6,7,8,9-hexahydro-2H-pyrrolo[3,4-b]quinoline-3-carboxylic acid ethyl ester] gave a melting point of 180 °C. Moreover, on Aurora2 (Aurora-A), the half-maximal inhibitory concentration (IC50) stood at 54 nM. Further, the IC50 at Aurora1 (Aurora-B) was 6 nM.

These data come from patent US8163768B2, “1,4-dihydropyridine-fused heterocycles, process for preparing the same, use and compositions containing them” (Aventis Pharma S.A.., priority 2005, dated 2012).
